Reference: ChEMBL document CHEMBL4627396 (J Med Chem, 2020)
One block for each compound: values may come before it. Calls of active or inactive are those of the source. The calls are words filed in the database; no cut-off is given here.

What was measured:
[1] = Drug metabolism in mouse microsomes; type: ADME, Microsome; conditions: read-out: Drug metabolism
[2] = Drug metabolism in rat microsomes; type: ADME, Microsome; conditions: read-out: Drug metabolism
[3] = Drug metabolism in human hepatocytes assessed per million cells; type: ADME, cell-based, Hepatocyte
Cytochrome P450 1A2 = target: T1, Cytochrome P450 1A2 (Homo sapiens, UniProt P05177); assay: Inhibition of CYP1A2 (unknown origin); type: ADME
T1 sequence (P05177 whole entry): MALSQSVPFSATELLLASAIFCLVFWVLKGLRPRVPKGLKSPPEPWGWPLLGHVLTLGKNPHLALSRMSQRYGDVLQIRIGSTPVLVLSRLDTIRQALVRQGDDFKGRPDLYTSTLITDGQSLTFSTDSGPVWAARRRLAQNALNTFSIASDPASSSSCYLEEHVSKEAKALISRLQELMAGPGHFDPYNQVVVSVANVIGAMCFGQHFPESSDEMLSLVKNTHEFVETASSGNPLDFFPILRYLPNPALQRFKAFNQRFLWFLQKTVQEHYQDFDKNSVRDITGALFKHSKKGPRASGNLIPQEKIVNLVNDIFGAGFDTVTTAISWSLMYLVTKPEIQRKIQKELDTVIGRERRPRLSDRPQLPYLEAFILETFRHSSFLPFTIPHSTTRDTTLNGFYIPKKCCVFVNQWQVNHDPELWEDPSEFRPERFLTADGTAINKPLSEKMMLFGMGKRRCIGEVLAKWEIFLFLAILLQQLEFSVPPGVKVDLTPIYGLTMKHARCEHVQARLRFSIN

Cytochrome P450 2D6 = Cytochrome P450 2D6 (Homo sapiens, UniProt P10635); assay: Inhibition of CYP2D6 (unknown origin); type: ADME
Cytochrome P450 2D6, sequence (P10635 whole entry): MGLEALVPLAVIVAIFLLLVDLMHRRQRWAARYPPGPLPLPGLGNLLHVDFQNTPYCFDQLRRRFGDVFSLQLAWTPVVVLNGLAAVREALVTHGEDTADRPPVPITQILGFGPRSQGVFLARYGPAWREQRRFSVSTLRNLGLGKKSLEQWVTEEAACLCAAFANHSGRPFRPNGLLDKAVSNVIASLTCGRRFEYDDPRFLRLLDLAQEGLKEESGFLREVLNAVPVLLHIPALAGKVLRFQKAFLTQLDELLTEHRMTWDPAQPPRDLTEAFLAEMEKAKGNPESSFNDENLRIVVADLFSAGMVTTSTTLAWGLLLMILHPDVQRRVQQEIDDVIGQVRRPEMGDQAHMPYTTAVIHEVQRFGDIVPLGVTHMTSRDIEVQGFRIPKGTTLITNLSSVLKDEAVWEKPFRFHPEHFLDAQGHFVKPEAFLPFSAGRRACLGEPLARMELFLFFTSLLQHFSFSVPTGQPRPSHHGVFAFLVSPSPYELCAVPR

Cytochrome P450 3A4 = Cytochrome P450 3A4 (Homo sapiens, UniProt P08684); assay: Inhibition of CYP3A4 (unknown origin); type: ADME
Cytochrome P450 3A4, sequence (P08684 whole entry): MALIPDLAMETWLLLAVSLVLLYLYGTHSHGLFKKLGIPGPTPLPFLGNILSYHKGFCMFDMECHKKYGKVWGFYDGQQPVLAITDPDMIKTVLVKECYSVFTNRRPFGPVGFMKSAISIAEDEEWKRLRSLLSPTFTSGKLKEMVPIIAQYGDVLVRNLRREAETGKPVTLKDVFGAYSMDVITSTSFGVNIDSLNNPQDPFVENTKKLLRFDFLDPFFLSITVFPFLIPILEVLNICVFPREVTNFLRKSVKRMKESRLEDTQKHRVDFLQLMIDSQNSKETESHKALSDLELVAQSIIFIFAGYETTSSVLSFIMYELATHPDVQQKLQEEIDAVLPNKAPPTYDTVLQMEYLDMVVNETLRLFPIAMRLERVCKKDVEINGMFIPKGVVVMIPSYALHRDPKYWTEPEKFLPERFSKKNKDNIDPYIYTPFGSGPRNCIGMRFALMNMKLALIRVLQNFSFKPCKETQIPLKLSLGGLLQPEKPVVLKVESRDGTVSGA

[4] = Toxicity in NSG mouse assessed as adverse effect at 40 mg/kg administered once daily for 21 days; type: organism-based; conditions: in vivo
[5] = target: T2, Receptor-interacting serine/threonine-protein kinase 4 (Homo sapiens, UniProt P57078)
T2 sequence (P57078 whole entry): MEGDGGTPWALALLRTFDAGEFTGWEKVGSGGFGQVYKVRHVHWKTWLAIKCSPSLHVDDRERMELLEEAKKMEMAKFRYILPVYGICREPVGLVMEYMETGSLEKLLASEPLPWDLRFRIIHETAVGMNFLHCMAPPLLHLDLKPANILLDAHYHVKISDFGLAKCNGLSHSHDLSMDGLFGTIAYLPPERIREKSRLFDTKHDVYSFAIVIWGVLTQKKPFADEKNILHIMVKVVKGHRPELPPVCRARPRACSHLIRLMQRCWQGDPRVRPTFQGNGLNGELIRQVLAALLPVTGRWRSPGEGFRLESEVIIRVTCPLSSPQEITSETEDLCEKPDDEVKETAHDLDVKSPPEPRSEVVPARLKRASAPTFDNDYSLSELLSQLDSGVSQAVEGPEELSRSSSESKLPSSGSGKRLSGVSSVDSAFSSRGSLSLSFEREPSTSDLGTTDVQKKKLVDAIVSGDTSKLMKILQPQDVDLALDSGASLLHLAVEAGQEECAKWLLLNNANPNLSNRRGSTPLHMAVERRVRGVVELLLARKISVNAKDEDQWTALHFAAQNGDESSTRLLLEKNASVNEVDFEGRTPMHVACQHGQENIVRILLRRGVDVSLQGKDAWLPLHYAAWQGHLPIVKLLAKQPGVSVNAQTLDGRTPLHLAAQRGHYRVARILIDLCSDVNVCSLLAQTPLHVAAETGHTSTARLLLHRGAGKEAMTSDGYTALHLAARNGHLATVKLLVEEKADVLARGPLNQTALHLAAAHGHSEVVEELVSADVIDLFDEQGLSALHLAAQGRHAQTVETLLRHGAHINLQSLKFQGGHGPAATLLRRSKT

[6] = target: T3, Dual specificity mitogen-activated protein kinase kinase 5 (Homo sapiens, UniProt Q13163)
T3 sequence (Q13163 whole entry): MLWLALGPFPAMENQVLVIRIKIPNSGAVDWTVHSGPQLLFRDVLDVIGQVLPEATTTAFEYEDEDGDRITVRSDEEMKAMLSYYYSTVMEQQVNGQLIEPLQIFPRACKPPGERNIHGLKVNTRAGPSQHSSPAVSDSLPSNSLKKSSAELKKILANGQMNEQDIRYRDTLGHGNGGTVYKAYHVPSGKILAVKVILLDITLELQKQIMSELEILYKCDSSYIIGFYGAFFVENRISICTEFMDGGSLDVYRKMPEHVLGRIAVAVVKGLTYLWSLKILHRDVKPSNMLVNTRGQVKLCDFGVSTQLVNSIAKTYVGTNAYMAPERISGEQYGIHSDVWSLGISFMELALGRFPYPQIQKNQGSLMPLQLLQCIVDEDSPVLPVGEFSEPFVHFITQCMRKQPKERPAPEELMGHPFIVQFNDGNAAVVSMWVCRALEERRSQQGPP

[7] = target: Phosphatidylinositol 4-phosphate 5-kinase type-1 gamma (Homo sapiens, UniProt O60331)
Phosphatidylinositol 4-phosphate 5-kinase type-1 gamma, sequence (O60331 whole entry): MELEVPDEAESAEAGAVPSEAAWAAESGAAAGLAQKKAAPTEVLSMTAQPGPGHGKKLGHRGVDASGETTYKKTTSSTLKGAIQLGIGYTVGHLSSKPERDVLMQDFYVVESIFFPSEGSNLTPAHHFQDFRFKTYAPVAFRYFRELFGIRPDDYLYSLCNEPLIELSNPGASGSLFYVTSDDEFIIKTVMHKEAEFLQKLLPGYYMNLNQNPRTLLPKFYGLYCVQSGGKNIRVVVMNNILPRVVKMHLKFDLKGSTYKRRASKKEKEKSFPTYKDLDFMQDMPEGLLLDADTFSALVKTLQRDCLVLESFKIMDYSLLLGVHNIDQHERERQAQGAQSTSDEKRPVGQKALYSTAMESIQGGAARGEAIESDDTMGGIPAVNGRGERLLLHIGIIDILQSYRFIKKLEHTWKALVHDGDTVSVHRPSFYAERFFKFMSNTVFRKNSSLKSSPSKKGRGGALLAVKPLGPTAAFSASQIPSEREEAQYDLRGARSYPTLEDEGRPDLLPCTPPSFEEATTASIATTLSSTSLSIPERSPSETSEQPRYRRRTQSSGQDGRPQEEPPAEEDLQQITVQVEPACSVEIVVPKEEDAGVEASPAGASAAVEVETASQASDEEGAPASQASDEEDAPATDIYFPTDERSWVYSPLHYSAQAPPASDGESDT

[8] = target: Mitogen-activated protein kinase kinase kinase 11 (Homo sapiens, UniProt Q16584)
Mitogen-activated protein kinase kinase kinase 11, sequence (Q16584 whole entry): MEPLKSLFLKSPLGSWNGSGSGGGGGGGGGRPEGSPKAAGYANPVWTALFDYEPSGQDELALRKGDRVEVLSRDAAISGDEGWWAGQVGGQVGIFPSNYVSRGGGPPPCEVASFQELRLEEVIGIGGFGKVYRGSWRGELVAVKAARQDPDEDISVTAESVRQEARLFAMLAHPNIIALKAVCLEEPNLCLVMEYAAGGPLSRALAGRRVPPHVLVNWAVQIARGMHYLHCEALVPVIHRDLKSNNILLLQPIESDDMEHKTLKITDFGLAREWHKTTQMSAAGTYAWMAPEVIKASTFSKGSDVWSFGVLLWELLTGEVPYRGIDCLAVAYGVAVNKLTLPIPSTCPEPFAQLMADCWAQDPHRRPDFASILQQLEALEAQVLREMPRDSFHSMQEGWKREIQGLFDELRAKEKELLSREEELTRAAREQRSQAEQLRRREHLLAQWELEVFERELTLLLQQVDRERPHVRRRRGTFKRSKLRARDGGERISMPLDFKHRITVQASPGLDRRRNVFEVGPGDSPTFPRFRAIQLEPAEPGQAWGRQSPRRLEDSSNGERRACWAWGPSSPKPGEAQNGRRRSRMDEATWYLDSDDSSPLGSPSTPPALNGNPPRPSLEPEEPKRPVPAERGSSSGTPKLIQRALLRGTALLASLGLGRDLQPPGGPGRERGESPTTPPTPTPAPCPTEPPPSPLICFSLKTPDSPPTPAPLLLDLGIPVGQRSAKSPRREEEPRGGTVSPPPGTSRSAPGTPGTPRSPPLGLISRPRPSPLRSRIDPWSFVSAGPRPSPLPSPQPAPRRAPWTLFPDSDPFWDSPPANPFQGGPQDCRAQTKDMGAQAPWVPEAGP

in vivo = conditions: Crl:CD Sprague-Dawley, rat, iv, 1 mg/kg
[9] = Drug metabolism in human microsomes; type: ADME, Microsome; conditions: read-out: Drug metabolism
[10] = Drug metabolism in rat hepatocytes assessed per million cells; type: ADME, cell-based, Hepatocyte
[11] = Drug excretion in Crl:CD Sprague-Dawley rat urine; type: ADME; conditions: in vivo
[12] = Drug metabolism in rat plasma assessed as oxidation; type: ADME, cell-free
[13] = Drug metabolism in rat plasma assessed as acetylation; type: ADME, cell-free
[14] = Drug metabolism in rat plasma assessed as amide hydrolysis; type: ADME, cell-free
Mus musculus [15] = assay: Antidiabetic activity in diet induced obese C57Bl/6J mouse model assessed as reduction in plasma insulin level at 25 to 50 mg/kg, po administered 4 hrs prior to glucose stimulation and measured after 10 to 90 mins by OGTT; type: functional, organism-based
Mus musculus [16] = assay: Antidiabetic activity in diet induced obese C57Bl/6J mouse model assessed as reduction in blood glucose level at 25 to 50 mg/kg, po administered 4 hrs prior to glucose stimulation and measured after 10 to 90 mins by OGTT; type: functional, organism-based
Mus musculus [17] = assay: Antidiabetic activity in diet induced obese C57Bl/6J mouse model assessed as reduction in baseline blood glucose level at 25 mg/kg, po administered twice daily for 14 days followed by glucose challenge at 4 hrs post last dose and measured after 10 to 90 mins by OGTT; type: functional, organism-based
Mus musculus [18] = assay: Antidiabetic activity in diet induced obese C57Bl/6J mouse model assessed as reduction in plasma insulin level at 25 mg/kg, po administered twice daily for 14 days followed by glucose challenge at 4 hrs post last dose and measured after 10 to 90 mins by OGTT; type: functional, organism-based
Mus musculus [19] = assay: Antidiabetic activity in diet induced obese C57Bl/6J mouse model assessed as reduction in peak blood glucose level at 25 mg/kg, po administered twice daily for 14 days followed by glucose challenge at 4 hrs post last dose and measured after 10 to 90 mins by OGTT; type: functional, organism-based
Mus musculus [20] = assay: Antidiabetic activity in diet induced obese C57Bl/6J mouse model assessed as change in blood glucose AUC at 25 mg/kg, po administered twice daily for 14 days followed by glucose challenge at 4 hrs post last dose and measured after 10 to 90 mins by OGTT; type: functional, organism-based
[21] = Toxicity in diet induced obese C57Bl/6J mouse model assessed as bloating of gastrointestinal tract at 50 mg/kg, po administered twice daily for 14 days; type: organism-based; conditions: in vivo
[22] = target: T4, Tyrosine-protein kinase SYK (Homo sapiens, UniProt P43405)
[23] = target: Calcium/calmodulin-dependent protein kinase type 1D (Homo sapiens) (UniProt Q8IU85)
Calcium/calmodulin-dependent protein kinase type 1D (Homo sapiens), sequence (Q8IU85 whole entry, looked up): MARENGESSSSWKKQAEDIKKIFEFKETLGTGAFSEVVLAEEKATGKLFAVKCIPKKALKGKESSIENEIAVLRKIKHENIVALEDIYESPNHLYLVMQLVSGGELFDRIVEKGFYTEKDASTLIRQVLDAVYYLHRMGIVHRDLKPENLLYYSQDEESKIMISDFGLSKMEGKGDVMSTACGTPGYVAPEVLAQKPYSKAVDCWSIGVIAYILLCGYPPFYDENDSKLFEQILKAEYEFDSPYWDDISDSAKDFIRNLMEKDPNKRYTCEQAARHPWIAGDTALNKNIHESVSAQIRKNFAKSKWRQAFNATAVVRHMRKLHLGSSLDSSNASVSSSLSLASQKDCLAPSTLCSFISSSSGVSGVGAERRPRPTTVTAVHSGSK

[24] = target: T4, Tyrosine-protein kinase SYK; conditions: 10 uM
[25] = target: Death-associated protein kinase 3 (Homo sapiens) (UniProt O43293); conditions: 10 uM
Death-associated protein kinase 3 (Homo sapiens), sequence (O43293 whole entry, looked up): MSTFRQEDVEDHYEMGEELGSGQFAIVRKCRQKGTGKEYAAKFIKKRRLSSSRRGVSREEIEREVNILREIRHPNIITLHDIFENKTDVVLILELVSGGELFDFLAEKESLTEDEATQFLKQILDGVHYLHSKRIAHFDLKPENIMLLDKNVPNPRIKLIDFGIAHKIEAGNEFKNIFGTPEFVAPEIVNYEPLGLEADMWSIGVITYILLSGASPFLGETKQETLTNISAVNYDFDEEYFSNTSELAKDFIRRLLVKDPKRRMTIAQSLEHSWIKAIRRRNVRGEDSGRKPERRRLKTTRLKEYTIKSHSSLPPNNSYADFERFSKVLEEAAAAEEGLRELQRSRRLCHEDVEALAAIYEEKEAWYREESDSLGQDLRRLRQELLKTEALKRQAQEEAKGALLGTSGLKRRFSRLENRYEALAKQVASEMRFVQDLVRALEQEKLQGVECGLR

[26] = target: Glycogen synthase kinase-3 beta (Homo sapiens) (UniProt P49841); conditions: 10 uM
Glycogen synthase kinase-3 beta (Homo sapiens), sequence (P49841 whole entry, looked up): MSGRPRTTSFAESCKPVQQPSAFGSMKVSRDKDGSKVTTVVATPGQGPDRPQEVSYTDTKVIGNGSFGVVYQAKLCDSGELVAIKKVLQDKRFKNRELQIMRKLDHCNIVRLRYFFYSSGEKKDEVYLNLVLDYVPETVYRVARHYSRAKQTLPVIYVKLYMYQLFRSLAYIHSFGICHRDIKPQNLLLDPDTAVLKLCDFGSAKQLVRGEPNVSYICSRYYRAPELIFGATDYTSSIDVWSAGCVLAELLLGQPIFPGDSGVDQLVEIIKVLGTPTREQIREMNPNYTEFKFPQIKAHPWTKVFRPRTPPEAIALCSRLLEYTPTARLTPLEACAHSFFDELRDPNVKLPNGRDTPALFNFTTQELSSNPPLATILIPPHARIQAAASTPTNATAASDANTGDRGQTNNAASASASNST

[27] = target: T5, Calcium/calmodulin-dependent protein kinase type IV (Homo sapiens) (UniProt Q16566); conditions: 10 uM
T5 sequence (whole entry): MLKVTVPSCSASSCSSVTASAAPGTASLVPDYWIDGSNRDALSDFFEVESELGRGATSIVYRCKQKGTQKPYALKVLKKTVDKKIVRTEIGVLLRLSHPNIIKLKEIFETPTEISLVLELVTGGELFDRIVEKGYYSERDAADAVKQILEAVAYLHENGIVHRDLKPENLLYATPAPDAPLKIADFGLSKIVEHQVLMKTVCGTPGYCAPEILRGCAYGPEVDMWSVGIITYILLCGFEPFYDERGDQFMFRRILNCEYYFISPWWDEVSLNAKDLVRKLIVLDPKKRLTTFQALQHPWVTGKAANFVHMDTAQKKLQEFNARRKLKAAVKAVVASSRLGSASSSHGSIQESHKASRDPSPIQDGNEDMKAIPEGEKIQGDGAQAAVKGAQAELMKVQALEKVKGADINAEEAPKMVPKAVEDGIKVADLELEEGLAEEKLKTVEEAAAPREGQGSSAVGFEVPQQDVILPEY

[28] = target: T6, Serine/threonine-protein kinase DCLK1 (Homo sapiens) (UniProt O15075); conditions: 10 uM
T6 sequence (whole entry): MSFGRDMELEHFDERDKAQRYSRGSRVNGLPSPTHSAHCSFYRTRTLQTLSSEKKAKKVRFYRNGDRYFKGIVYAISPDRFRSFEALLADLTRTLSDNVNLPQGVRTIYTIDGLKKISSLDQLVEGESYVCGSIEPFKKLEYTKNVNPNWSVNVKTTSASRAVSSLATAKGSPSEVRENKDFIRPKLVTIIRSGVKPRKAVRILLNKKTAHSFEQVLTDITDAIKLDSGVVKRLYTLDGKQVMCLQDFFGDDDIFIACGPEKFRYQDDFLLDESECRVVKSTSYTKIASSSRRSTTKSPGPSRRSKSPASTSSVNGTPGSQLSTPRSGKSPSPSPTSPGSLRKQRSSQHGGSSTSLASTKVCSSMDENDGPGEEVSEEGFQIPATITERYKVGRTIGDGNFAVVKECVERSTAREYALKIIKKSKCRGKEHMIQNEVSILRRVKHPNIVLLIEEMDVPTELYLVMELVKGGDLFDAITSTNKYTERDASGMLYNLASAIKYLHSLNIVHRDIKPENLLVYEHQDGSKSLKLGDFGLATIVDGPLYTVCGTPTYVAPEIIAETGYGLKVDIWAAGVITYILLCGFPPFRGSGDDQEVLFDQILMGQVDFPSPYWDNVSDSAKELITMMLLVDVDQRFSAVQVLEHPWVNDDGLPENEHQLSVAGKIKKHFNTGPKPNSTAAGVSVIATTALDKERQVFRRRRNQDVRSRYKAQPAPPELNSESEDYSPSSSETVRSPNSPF

microsomal CLint [1]: 6 µL/min/mg
microsomal CLint [2]: 3 µL/min/mg
Drug metabolism [3]: 19 µL/min
IC50 (Cytochrome P450 1A2): > 20 µM
IC50 (Cytochrome P450 2D6): > 20 µM
IC50 (Cytochrome P450 3A4): > 20 µM
IC50 [5]: 5.69 µM
IC50 [6]: 0.025 µM
IC50 [7]: 11.2 µM
IC50 [8]: 2.75 µM
Vd (in vivo): 18.5 L/kg
Compound: CC(C)c1cc(Nc2nc(N3CCC[C@H](N)C3)ncc2C(N)=O)cc(C(C)C)n1
Activity [4]: Non-Toxic

microsomal CLint [2]: < 1 µL/min/mg
microsomal CLint [9]: 13 µL/min/mg
Drug metabolism [10]: 11 µL/min
IC50 (Cytochrome P450 1A2): > 20 µM
IC50 (Cytochrome P450 2D6): > 20 µM
IC50 (Cytochrome P450 3A4): > 20 µM
Drug excretion [11]: Metabolite_Detected
Drug metabolism [12]: Metabolite_Detected
Drug metabolism [13]: Metabolite_Detected
Drug metabolism [14]: Metabolite_Detected
Compound: CC(C)(C#N)c1cc(Nc2nc(N3CCC[C@H](N)C3)ncc2C(N)=O)cc(C(C)(C)C#N)c1
Activity (Mus musculus [15]): Active
Activity (Mus musculus [16]): Active
Activity (Mus musculus [17]): Active
Activity (Mus musculus [18]): Active
Activity (Mus musculus [19]): Active
Activity (Mus musculus [20]): inactive
Activity [21]: Toxic

Compound: NCCNc1ncc(C(N)=O)c(Nc2cccc(C(F)(F)F)c2)n1
IC50 [22]: 0.007 µM
ΔTm [23]: 5.44 °C
ΔTm [24]: 7.51 °C
ΔTm [25]: 4.05 °C
ΔTm [26]: 3.4 °C
ΔTm [27]: 1.34 °C
ΔTm [28]: 0.11 °C
